Assay results published in patent US9180156B2, “Composition for controlling increase in blood glucose” (priority 2008, dated 2015).

Columns and labels:
[1] = Intraperitoneal glucose tolerance test (IPGTT) in rats; assay type: in vivo, rat; settings: catechin 10 mg/kg i.v. 30 min before glucose 2.0 g/kg i.p.; 12-h fasted rats (FIG. 2)
Description: Sprague-Dawley rats were provided by Hyochang Science Co. (Seoul, Korea). After a 12-h fast, rats were anesthetized using pentobarbital sodium (40 mg/kg, i.p.; Nembutal, 50 mg/ml, Hanlim Pharmaceutical Co., Seoul, Korea) and then injected with one of the epicatechins: EGCG, EGC, ECG, and EC (each 10 mg/kg in 300 μl PBS, i.v.). EC was dissolved in a minute amount of DMSO in advance before addition of PBS. In another experiment, rats were randomly divided into 3 groups: control, GTE and GTE-GC. The rats in the GTE group were injected with natural GTE (100 mg/kg in 300 μl PBS, i.v.; 10 mg/kg as EGCG) through the tail vein, while the control rats were injected with only 300 μl PBS and rats in the GTE-GC group were given an equal amount of GC-deficient GTE (100 mg/kg in 300 μl PBS, i.v.; 2.6 mg/kg as EGCG). Thirty minutes after the injection, glucose (2.0 g/kg in 600 μl distilled water, i.p.) was injected. For OGTT, the rats were ingested with 1-ml distilled water only (control), or 1-ml distilled water containing one of natural GTE (900 mg/kg), GC-deficient GTE (900 mg/kg), EGCG (90 mg/kg), natural GTE plus PEG (110 mg/100 mg EGCG) or PEG alone. Immediately after the ingestion, each rat was orally given 1-ml distilled water containing glucose (2 g/kg). For the assay of blood glucose levels, blood was drawn from the tail vein at the indicated times. All the experiments were approved by the Keimyung University institutional ethics committee, Daegu, Korea for supervising animal research.

[2] = molecular target: T1, glucose transporter type 1 (Homo sapiens, UniProt P11166); settings: red blood cells; read-out: concentration competing with glucose such that the reaction rate was half its maximal value; cited from earlier work
T1 construct: glucose transporter type 1 in red blood cells; host or cells: red blood cells (erythrocytes)
T1 sequence (P11166 1-492): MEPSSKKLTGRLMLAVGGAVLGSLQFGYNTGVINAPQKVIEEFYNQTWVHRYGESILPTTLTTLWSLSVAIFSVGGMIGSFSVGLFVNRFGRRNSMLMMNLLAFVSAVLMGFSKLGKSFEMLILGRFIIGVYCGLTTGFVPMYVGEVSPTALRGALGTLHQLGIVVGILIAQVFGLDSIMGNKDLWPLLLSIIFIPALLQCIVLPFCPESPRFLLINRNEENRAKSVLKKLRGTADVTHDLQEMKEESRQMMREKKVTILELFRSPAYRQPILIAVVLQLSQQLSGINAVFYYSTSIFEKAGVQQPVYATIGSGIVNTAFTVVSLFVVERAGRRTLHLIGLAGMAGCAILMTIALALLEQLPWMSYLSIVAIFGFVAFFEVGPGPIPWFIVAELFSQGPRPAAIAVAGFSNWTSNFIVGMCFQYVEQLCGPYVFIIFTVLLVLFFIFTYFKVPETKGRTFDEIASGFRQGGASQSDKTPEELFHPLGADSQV

U937 cells = settings: cited from earlier work
[3] = relatively long-term intraperitoneal application; rats; cited from earlier work
OGTT in rats = assay type: in vivo, rat; settings: GC-deficient GTE 900 mg/kg or EGCG 90 mg/kg oral immediately before oral glucose; rats (FIG. 6D)
[4] = system: differentiated 3T3-L1 adipocytes; assay: Deoxyglucose uptake assay, 3T3-L1; assay type: cell-based, mouse; settings: EGCG 0.1, 1.0, 10 μM; with or without 100 nM insulin (FIG. 3C)
Description: (§1) Rat L6 myoblasts were cultured in low-glucose DMEM with 10% (v/v) FBS until they reached 80% confluency. To induce differentiation, cells were further cultured in DMEM (24.9 mM glucose) containing 2% FBS for 7 days. Cell viability was assessed by the trypan blue viability test. Myogenic differentiation to myotube status was evaluated both morphologically and biochemically. Mouse 3T3-L1 preadipocytes were grown to confluence at 37° C. in 35-mm culture dishes in DMEM containing 10% FCS with no added biotin or pantothenate in incubators equilibrated with 5% CO2. […] Cell differentiation was evaluated by the Oil red-0 staining. […]
(§2) Briefly, after serum starvation for 30 min, the cells were washed with Krebs-Ringer phosphate-HEPES buffer [KRPH buffer: 10 mM phosphate buffer, pH 7.4; 1 mM MgSO4, 1 mM CaCl2, 136 mM NaCl, 4.7 mM KCl, and 10 mM HEPES, pH 7.6] and then incubated with or without 100 nM insulin for 20 min in KRPH buffer that contained EGCG (0, 0.1, 1.0 or 10 μM). Glucose transport was determined by the addition of 2-deoxy-[^3H] glucose (0.1 mM, 0.5 μCi/ml; PerkinElmer Life and Analytical Science, Waltham, Mass.). […] The cells were then lysed in PBS containing 0.2 M NaOH, and glucose uptake was assessed by scintillation counting.

[5] = system: differentiated L6 myoblasts; assay: Deoxyglucose uptake assay, L6; assay type: cell-based, rat; settings: EGCG 0.1, 1.0, 10 μM; with or without 100 nM insulin (FIG. 3A)
Description: as §1, §2

protein kinase B (PKB) [6] = assay: Western blot of PKB phosphorylation, HepG2; assay type: cell-based, human; settings: up to 10 μM EGCG; with or without 100 nM insulin (FIG. 4B)
Description: (§3) Rat L6 myoblasts were cultured in low-glucose DMEM with 10% (v/v) FBS until they reached 80% confluency. To induce differentiation, cells were further cultured in DMEM (24.9 mM glucose) containing 2% FBS for 7 days. Cell viability was assessed by the trypan blue viability test. Myogenic differentiation to myotube status was evaluated both morphologically and biochemically. Mouse 3T3-L1 preadipocytes were grown to confluence at 37° C. in 35-mm culture dishes in DMEM containing 10% FCS with no added biotin or pantothenate in incubators equilibrated with 5% CO2. At two days post-confluence (day 0), differentiation was induced with methylisobutylxanthine (0.5 mM), dexamethasone (0.5 μM) and insulin (5 μg/ml) in DMEM containing 10% FBS. On day 2, methylisobutylxanthine and dexamethasone were removed and insulin treatment was continued for 2 additional days. On day 4 and thereafter, DMEM (without insulin supplementation) plus 10% FBS was replaced every 2 days. Cells (2×10^6 cells/dish) were used for experiments on day 8. Cell differentiation was evaluated by the Oil red-0 staining. Human hepatocellular carcinoma HepG2 cell line was maintained in DMEM containing 10% FBS at 37° C. […]

protein kinase B (PKB) [7] = assay: Western blot of PKB phosphorylation, 3T3-L1; assay type: cell-based, mouse; settings: up to 10 μM EGCG; with or without 100 nM insulin (FIG. 4C)
Description: as §3

INS-1 beta cells = assay: Deoxyglucose uptake assay, INS-1; assay type: cell-based, rat; settings: EGCG 0.1, 1.0, 10 μM; with or without 100 nM insulin (FIG. 3D)
Description: as §1, §2

protein kinase B (PKB) [8] = assay: Western blot of PKB phosphorylation, L6; assay type: cell-based, rat; settings: up to 10 μM EGCG; with or without 100 nM insulin (FIG. 4A)
Description: as §3

[9] = 10 mg/kg i.v.; rats; cited from earlier work
[10] = Insulin tolerance test (ITT) in normal rats; assay type: in vivo, rat
Description: Kir6.2 knock-out (k/o) mice were kindly provided by Prof. Susumu Seino at Kobe University in Japan. Following a 4-h fast, Kir6.2 k/o mice or normal rats were intravenously injected with PBS (100 μl for mouse, 300 μl for rat) only, or PBS containing EGCG (10 mg/kg), natural GTE (100 mg/kg) or GC-deficient GTE (100 mg/kg). Thirty minutes after the injection, the mice and rats were injected intraperitoneally with normal saline (300 μl for mouse, 600 μl for rat) containing insulin (1 IU/kg; INSULIN […], Ind.). Blood samplings were done through the tail vein at the indicated times.

[11] = Insulin tolerance test (ITT) in Kir6.2 k/o mice; assay type: in vivo, mouse
Description: Kir6.2 knock-out (k/o) mice were kindly provided by Prof. Susumu Seino at Kobe University in Japan. Following a 4-h fast, Kir6.2 k/o mice or normal rats were intravenously injected with PBS (100 μl for mouse, 300 μl for rat) only, or PBS containing EGCG (10 mg/kg), natural GTE (100 mg/kg) or GC-deficient GTE (100 mg/kg). Thirty minutes after the injection, the mice and rats were injected intraperitoneally with normal saline (300 μl for mouse, 600 μl for rat) containing insulin (1 IU/kg; INSULIN LISPRO, Eli Lilly, Ind.). Blood samplings were done through the tail vein at the indicated times.

protein kinase B (PKB) [12] = assay: Western blot of PKB phosphorylation, INS-1; assay type: cell-based, rat; settings: up to 10 μM EGCG; with or without 100 nM insulin (FIG. 4D)
HepG2 hepatocytes = assay: Deoxyglucose uptake assay, HepG2; assay type: cell-based, human; settings: EGCG 0.1, 1.0, 10 μM; with or without 100 nM insulin (FIG. 3B)
Description: as §1, §2

Compound: O=C(O[C@@H]1Cc2c(O)cc(O)cc2O[C@@H]1c1ccc(O)c(O)c1)c1cc(O)c(O)c(O)c1 [ECG, epicatechin-3-gallate]
- blood glucose levels 30 min after glucose loading vs control [1]: more elevated
- IC50 [2]: 100 nM

Compound: Oc1cc(O)c2c(c1)O[C@H](c1cc(O)c(O)c(O)c1)[C@H](O)C2 [EGC, epigallocatechin]
- blood glucose levels 30 min after glucose loading vs control [1]: no effects

Compound: O=c1c(O)c(-c2cc(O)c(O)c(O)c2)oc2cc(O)cc(O)c12 [myricetin]
- concentration that inhibits cellular glucose uptake (U937 cells): around 10 μM

Compound: O=c1c(O)c(-c2ccc(O)c(O)c2)oc2cc(O)cc(O)c12 [quercetin]
- concentration that inhibits cellular glucose uptake (U937 cells): around 10 μM

Compound: Epigallocatechin-3-gallate [EGCG]
- effect on body weight [3]: weight loss
- effect on the sexual organs [3]: significant deterioration in the sexual organs
- inhibition of glucose absorption compared with the GTE-treated group (OGTT in rats): less efficiently
- basal and insulin-stimulated 2-deoxy-[3H]-glucose uptake [4]: decreased by EGCG dose-dependently
- blood glucose levels 30 min after glucose loading vs control [1]: more elevated
- IC50 [2]: 1000 nM
- basal and insulin-stimulated 2-deoxy-[3H]-glucose uptake [5]: decreased by EGCG dose-dependently
- basal and insulin-regulated expression of phospho-PKB (protein kinase B (PKB) [6]): did not alter
- basal and insulin-regulated expression of phospho-PKB (protein kinase B (PKB) [7]): did not alter
- basal and insulin-stimulated 2-deoxy-[3H]-glucose uptake (INS-1 beta cells): decreased by EGCG dose-dependently
- basal and insulin-regulated expression of phospho-PKB (protein kinase B (PKB) [8]): did not alter
- blood concentration at 30 min after injection [9]: around 1 μM
- rate of blood glucose disappearance when treated with insulin ([10]; EGCG 10 mg/kg i.v. 30 min before insulin 1 IU/kg i.p., rats, P<0.01 (FIG. 5C)): delayed mildly but significantly
- blood glucose levels 30 min after injection ([10]; EGCG 10 mg/kg i.v., 4-h fasted normal rats, P<0.01 (FIG. 5A)): significant elevation
- rate of blood glucose disappearance when treated with insulin ([11]; EGCG 10 mg/kg i.v. 30 min before insulin 1 IU/kg i.p., Kir6.2 k/o mice, P<0.01 (FIG. 5D)): delayed mildly but significantly
- blood glucose levels 30 min after injection ([11]; EGCG 10 mg/kg i.v., 4-h fasted Kir6.2 k/o mice, P<0.01 (FIG. 5B)): significant elevation
- basal and insulin-regulated expression of phospho-PKB (protein kinase B (PKB) [12]): did not alter
- basal and insulin-stimulated 2-deoxy-[3H]-glucose uptake (HepG2 hepatocytes): decreased by EGCG dose-dependently
